Values joined by “and” are separate entries in the source; they are usually repeats but may differ in a detail not shown here. Equal values may be shown once. Read-outs that look alike come from different tables or passages of the source.
How the values were obtained:
mutant HttQ103 and LC3 = assay: ICC of HDQ103-GFP and LC3 co-localization in HeLa cells; assay type: cell-based; settings: Fig. S7k, test substances given +HCQ; for HttQ103-GFP / LC3 colocalization, AVG of cells per 50 cells: control 1; for HttQ103-GFP / LC3 colocalization, percentage AVG: control 2
Procedure: Cells were cultured on coverslips coated with poly-L-lysine (Sigma) to observe cellular localization of proteins. Using 4% paraformaldehyde in PBS (pH 7.4), the cells were fixed for 15 min at room temperature and washed three times for 5 min with PBS. After fixing, the cells were permeabilized with 0.5% Triton X-100 in PBS solution for 15 min and washed three times with PBS for 5 min. The cells were blocked containing 2% BSA in PBS solution for 1 h at room temperature. Subsequently, the cells were incubated with primary antibody diluted in 2% BSA/PBS solution overnight at 4 °C, followed by washing the cells three times for 10 min with PBS and incubated with Alexa Fluor-conjugated secondary antibody diluted in 2% BSA/PBS for 30 min at room temperature. Using a DAPI-containing mounting medium (Vector Laboratories), the coverslips were mounted on glass slides. Confocal images were taken by laser scanning confocal microscope 510 Meta (Zeiss) and analyzed by Zeiss LSM Image Browser (ver. 4.2.0.121). […] Quantification results are shown as mean ± S.D. or S.E.M. of three independent experiments […]
Supplementary Fig. 7. AUTOTACs selectively degrade pathological mutant huntingtin. […]
(j) ICC of HeLa cells […]
expressing HDQ103-GFP with the indicated compounds (1 μM, 24 h) treated with HCQ (10 μM, 24 h). Scale bar, 10 μm. (k) Quantification of j (n=3 biologically independent experiments each counting 50 cells). P-values (from a two-sided unpaired t-test): *P < 0.0432. Data are presented as mean values ± SD where relevant. Source data are provided with this paper. […]

tauP301L = tauP301L (Homo sapiens, UniProt P10636, P618L); assay: WB degradation of tauP301L in SH-SY5Y-tauP301L cells; assay type: cell-based; settings: densitometry, dosage degradation, SH-SY5Y-Tau-TiFC; for Tau normalized to GAPDH and control, AVG %: average of N=3
Procedure: Adherent cells were washed with phosphate-buffered saline (PBS) and cell pellets were lysed in SDS-based sample buffer (277.8 mM Tris-HCI, pH 6.8, 4.4% LDS, 44.4% (v/v) glycerol) containing beta-mercaptoethanol. Alternatively, cell pellets or protein supernatants were lysed in 5X Laemmli sample buffer. Whole-cell lysates were separated using SDS-PAGE, and transferred onto polyvinyllidene difluoride membranes at 100 V for 2 h at 4 °C. The membrane was incubated with a blocking solution consisting 4% skim milk in PBS solution for 30 min at room temperature and incubated with primary antibodies overnight, followed by incubation with host-specific HRP-conjugated secondary antibodies (1:10000 dilution). For signal detection, the membrane was developed with a mixture of ECL solution (Thermo Fisher Scientific) using X-ray films. Densitometry of developed bands was measured and analyzed with ImageJ (NIH, Bethesda).

[1] = test system: tauP301L inclusion bodies; assay: ICC of TauP301L-GFP autophagic targeting in HeLa cells; assay type: cell-based; settings: Fig. 5k, HCQ alone
Procedure: Fig. 5 Selective degradation of pathological aggregation-prone tau species by aggregate-binding AUTOTAC. a–c WB in SH-SY5Y-tauP301L cells treated with PBA-1105, PBA, or YTK-1105 at the indicated concentrations. d Densitometry of (a, b, and c) (n = 3 biologically independent experiments). e–g Same as (a–c) but with Anle138b-F105, Anle138b, or YTK-105. (h) Densitometry of (e, f, and g) (n = 3 biologically independent experiments). i WB in SH-SY5Y-tauP301L cells treated with PBA-1105 (0.1 μM) at the indicated time points. j ICC of HeLa cells expressing recombinant TauP301L-GFP and treated with the indicated compounds (1 μM, 24 h) and HCQ (10 μM, 24 h). Scale bar, 10 μm. k Quantification of (j) (n = 3 biologically independent experiments each counting 50 cells). l In vivo oligomerization assay in SH-SY5Y-tauP301L cells treated with okadaic acid (15 nM, 24 h) and the indicated compounds (0.1 μM, 24 h). m Triton X-100-fractionation assay in SH-SY5Y-tauP301L cells treated with a combination of HCQ (10 μM, 24 h), okadaic acid (15 nM, 24 h) or PBA-1105 (0.1 μM, 24 h). Data are presented as mean values ± SD where relevant. P-values (from a two-sided unpaired t test): **P < 0.00821. Source data are provided with this paper.
Cells were cultured on coverslips coated with poly-L-lysine (Sigma) to observe cellular localization of proteins. Using 4% paraformaldehyde in PBS (pH 7.4), the cells were fixed for 15 min at room temperature and washed three times for 5 min with PBS. After fixing, the cells were permeabilized with 0.5% Triton X-100 in PBS solution for 15 min and washed three times with PBS for 5 min. The cells were blocked containing 2% BSA in PBS solution for 1 h at room temperature. Subsequently, the cells were incubated with primary antibody diluted in 2% BSA/PBS solution overnight at 4 °C, followed by washing the cells three times for 10 min with PBS and incubated with Alexa Fluor-conjugated secondary antibody diluted in 2% BSA/PBS for 30 min at room temperature. Using a DAPI-containing mounting medium (Vector Laboratories), the coverslips were mounted on glass slides. Confocal images were taken by laser scanning confocal microscope 510 Meta (Zeiss) and analyzed by Zeiss LSM Image Browser (ver. 4.2.0.121). […] Quantification results are shown as mean ± S.D. or S.E.M. of three independent experiments

in vitro = settings: human
LNCaP cells [2] = settings: human
LNCaP cells [3] = assay: WST-based cell viability assay in LNCaP cells; settings: LNcaP, duplicates
[4] = WST assay viability relative to con = 100

Chain of tauP301L (P10636 1-441 isoform P10636-8 P301L): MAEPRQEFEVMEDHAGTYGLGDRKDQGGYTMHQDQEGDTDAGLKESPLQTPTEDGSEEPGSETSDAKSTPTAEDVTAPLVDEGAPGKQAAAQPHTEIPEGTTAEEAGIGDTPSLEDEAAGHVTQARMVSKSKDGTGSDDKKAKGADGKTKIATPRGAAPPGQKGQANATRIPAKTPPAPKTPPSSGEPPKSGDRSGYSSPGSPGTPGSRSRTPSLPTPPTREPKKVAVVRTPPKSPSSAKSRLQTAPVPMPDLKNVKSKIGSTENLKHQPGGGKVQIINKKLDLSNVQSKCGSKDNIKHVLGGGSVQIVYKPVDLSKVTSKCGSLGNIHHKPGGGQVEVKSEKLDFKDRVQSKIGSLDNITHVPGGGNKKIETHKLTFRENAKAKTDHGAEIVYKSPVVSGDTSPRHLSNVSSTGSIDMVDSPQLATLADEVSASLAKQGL

Brc1cccc(-c2cc(-c3ccc4c(c3)OCO4)[nH]n2)c1 [Anle138b, reference compound]
HttQ103-GFP / LC3 colocalization, AVG of cells per 50 cells (mutant HttQ103 and LC3): 21 | HttQ103-GFP / LC3 colocalization, percentage AVG (mutant HttQ103 and LC3): 42 | Tau normalized to GAPDH and control, AVG % (tauP301L; 1 nM): 90.8031% | remaining activity at 0.001 µM (tauP301L; 1 nM, read-out: (Tau normalized to GAPDH) normalized to control, percentage (individual replicates N=1, N=2, N=3)): 89.3% | Tau normalized to GAPDH and control, AVG % (tauP301L; 10 nM): 101.352% | Tau normalized to GAPDH and control, AVG % (tauP301L; 100 nM): 84.5794% | Tau normalized to GAPDH and control, AVG % (tauP301L; 1 uM): 69.922% | Tau normalized to GAPDH and control, AVG % (tauP301L; 10uM): 83.6402%

CCN(CCO)CCCC(C)Nc1ccnc2cc(Cl)ccc12 (centres unmarked) [HCQ]
HttQ103-GFP / LC3 colocalization, AVG of cells per 50 cells (mutant HttQ103 and LC3): 14.6667 | HttQ103-GFP / LC3 colocalization, percentage AVG (mutant HttQ103 and LC3): 29.3333 | HttQ103-GFP / LC3 colocalization, cells counted per 50 cells (mutant HttQ103 and LC3; single experiments): 13 and 17 and 14 | TauP301L-GFP / LC3 colocalization, AVG of cells per 50 cells [1]: 11.3333 | TauP301L-GFP / LC3 colocalization, percentage AVG [1]: 22.6667 percentage | TauP301L-GFP / LC3 colocalization, cells counted per 50 cells (individual replicates) ([1]; count out of 50 cells): 15 and 7 and 12

C=CC1(C)OC(=O)N(c2cc(Cl)cc(Cl)c2)C1=O (centres unmarked) [Vinclozolin]
viability at 0.01 µM (in vitro; [4]): 96.4% | viability at 0.1 µM (in vitro; [4]): 91.3% | viability at 1 µM (in vitro; [4]): 89.8% | viability at 10 µM (in vitro; [4]): 92.8% | viability at 50 µM (in vitro; [4]): 94.7% | viability at 100 µM (in vitro; [4]): 111% | viability at 0.01 µM (in vitro; WST assay viability, AVG %): 100% | viability at 0.1 µM (in vitro; WST assay viability, AVG %): 97.6% | viability at 1 µM (in vitro; WST assay viability, AVG %): 93.6% | viability at 10 µM (in vitro; WST assay viability, AVG %): 98.3% | viability at 50 µM (in vitro; WST assay viability, AVG %): 102% | viability at 100 µM (in vitro; WST assay viability, AVG %): 106% | WST assay viability relative to con = 100 (LNCaP cells [2]; 0.01 µM): 103.812 | WST assay viability relative to con = 100 (LNCaP cells [2]; 0.1 µM): 103.962 | WST assay viability relative to con = 100 (LNCaP cells [2]; 1 µM): 97.4197 | WST assay viability relative to con = 100 (LNCaP cells [2]; 10 µM): 103.712 | WST assay viability relative to con = 100 (LNCaP cells [2]; 50 µM): 108.507 | WST assay viability relative to con = 100 (LNCaP cells [2]; 100 µM): 100.466 | WST assay raw reading (LNCaP cells [3]; 0.01uM): 2.034 and 2.182 | WST assay raw reading (LNCaP cells [3]; 0.1uM): 1.931 and 2.185 | WST assay raw reading (LNCaP cells [3]; 1uM): 1.901 and 2.054 | WST assay raw reading (LNCaP cells [3]; 10uM): 1.962 and 2.18 | WST assay raw reading (LNCaP cells [3]; 50uM): 1.999 and 2.276 | WST assay raw reading (LNCaP cells [3]; 100uM): 2.333 and 2.115
